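96-well plates; 48 h exposure; 5 concentrations. Endpoints by linear interpolation between flanking doses. Not reached: highest tested concentration assigned. Here, GI50 denotes the concentration required for 50% inhibition of growth.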 Calls of active or inactive are those of the source. No stated cut-off is given here; in the data, active = GI50 up to about 1.1 µM and inactive = higher.
Assays:
Experiment in all cases: NCI tumour cell line growth inhibition, 48 h
786-0 = test system: 786-0
A498 = test system: A498
A549 = test system: A549
ACHN = test system: ACHN
CAKI-1 = test system: CAKI-1
CCRF-CEM = test system: CCRF-CEM
COLO 205 = test system: COLO 205
DLD-1 = test system: DLD-1
DMS-114 = test system: DMS-114
DMS-273 = test system: DMS-273
EKVX = test system: EKVX
HCC 2998 = test system: HCC 2998
HCT-116 = test system: HCT-116
HCT-15 = test system: HCT-15
HL-60 = test system: HL-60
HOP-18 = test system: HOP-18
HOP-62 = test system: HOP-62
HT-29 = test system: HT-29
IGROV-1 = test system: IGROV-1
K562 = test system: K562
KM-20L2 = test system: KM-20L2
KM12 = test system: KM12
LOX IMVI = test system: LOX IMVI
LXFL 529 = test system: LXFL 529
M14 = test system: M14
M19-MEL = test system: M19-MEL
MOLT-4 = test system: MOLT-4
Malme-3M = test system: Malme-3M
NCI-H226 = test system: NCI-H226
NCI-H23 = test system: NCI-H23
NCI-H460 = test system: NCI-H460
OVCAR-3 = test system: OVCAR-3
OVCAR-4 = test system: OVCAR-4
OVCAR-5 = test system: OVCAR-5
OVCAR-8 = test system: OVCAR-8
RXF 393 = test system: RXF 393
RXF 631 = test system: RXF 631
SF-268 = test system: SF-268
SF-295 = test system: SF-295
SK-MEL-28 = test system: SK-MEL-28
SK-MEL-2 = test system: SK-MEL-2
SK-MEL-5 = test system: SK-MEL-5
SK-OV-3 = test system: SK-OV-3
SN12C = test system: SN12C
SNB-19 = test system: SNB-19
SNB-75 = test system: SNB-75
SR = test system: SR
SW-620 = test system: SW-620
TK-10 = test system: TK-10
U-251 = test system: U-251
UACC-257 = test system: UACC-257
UACC-62 = test system: UACC-62
UO-31 = test system: UO-31
HOP-92 = test system: HOP-92
MCF7 = test system: MCF7
NCI-H522 = test system: NCI-H522
NCI/ADR-RES = test system: NCI/ADR-RES
RPMI-8226 = test system: RPMI-8226
SF-539 = test system: SF-539
SNB-78 = test system: SNB-78
XF498 = test system: XF498

In the case of `Cc1cccc2c1C/C(=C1\CCc3c(C)cccc31)C2=O`, the GI50 (786-0) is reported as 90.4 µM (inactive), the GI50 (A498) is reported as > 100 µM (inactive) and the GI50 (A549) is reported as > 100 µM (inactive). For the same compound, the GI50 (ACHN) was > 100 µM (inactive), the GI50 (CAKI-1) was > 100 µM (inactive) and the GI50 (CCRF-CEM) was > 100 µM (inactive). The GI50 (COLO 205) was > 100 µM (inactive), the GI50 (DLD-1) was > 100 µM (inactive) and the GI50 (DMS-114) was > 100 µM (inactive). The GI50 (DMS-273) was > 100 µM (inactive), the GI50 (EKVX) was > 100 µM (inactive) and the GI50 (HCC 2998) was > 100 µM (inactive). The GI50 (HCT-116) was > 100 µM (inactive), the GI50 (HCT-15) was over 100 µM and the GI50 (HL-60) was > 100 µM (inactive). The GI50 (HOP-18) was 38.3 µM (inactive), the GI50 (HOP-62) was > 100 µM (inactive) and the GI50 (HT-29) was > 100 µM (inactive). The GI50 (IGROV-1) was > 100 µM (inactive), the GI50 (K562) was > 100 µM (inactive) and the GI50 (KM-20L2) was > 100 µM (inactive). For the same compound, the GI50 (KM12) was > 100 µM (inactive), the GI50 (LOX IMVI) was > 100 µM (inactive) and the GI50 (LXFL 529) was > 100 µM (inactive). The GI50 (M14) was > 100 µM (inactive), the GI50 (M19-MEL) was > 100 µM (inactive) and the GI50 (MOLT-4) was > 100 µM (inactive). For the same compound, the GI50 (Malme-3M) was > 100 µM (inactive), the GI50 (NCI-H226) was > 100 µM (inactive) and the GI50 (NCI-H23) was > 100 µM (inactive). The GI50 (NCI-H460) was > 100 µM (inactive), the GI50 (OVCAR-3) was > 100 µM (inactive) and the GI50 (OVCAR-4) was 52.6 µM (inactive). The GI50 (OVCAR-5) was > 100 µM (inactive), the GI50 (OVCAR-8) was > 100 µM (inactive) and the GI50 (RXF 393) was > 100 µM (inactive). For the same compound, the GI50 (RXF 631) was > 100 µM (inactive), the GI50 (SF-268) was > 100 µM (inactive) and the GI50 (SF-295) was > 100 µM (inactive). The GI50 (SK-MEL-28) was > 100 µM (inactive), the GI50 (SK-MEL-2) was > 100 µM (inactive) and the GI50 (SK-MEL-5) was > 100 µM (inactive). For the same compound, the GI50 (SK-OV-3) was > 100 µM (inactive), the GI50 (SN12C) was > 100 µM (inactive) and the GI50 (SNB-19) was > 100 µM (inactive). For the same compound, the GI50 (SNB-75) was 80.9 µM (inactive), the GI50 (SR) was > 100 µM (inactive) and the GI50 (SW-620) was > 100 µM (inactive). For the same compound, the GI50 (TK-10) was > 100 µM (inactive), the GI50 (U-251) was > 100 µM (inactive) and the GI50 (UACC-257) was > 100 µM (inactive). The GI50 (UACC-62) was > 100 µM (inactive) and the GI50 (UO-31) was > 100 µM (inactive).
In the case of `COc1cc(/C=C(/C#N)C(N)=O)ccc1O`, the GI50 (A498) is reported as > 63.2 µM (inactive), the GI50 (A549) is reported as > 100 µM (inactive) and the GI50 (CAKI-1) is reported as > 100 µM (inactive). For the same compound, the GI50 (CCRF-CEM) was > 100 µM (inactive), the GI50 (COLO 205) was > 100 µM (inactive) and the GI50 (DLD-1) was > 100 µM (inactive). For the same compound, the GI50 (DMS-114) was > 100 µM (inactive), the GI50 (DMS-273) was > 100 µM (inactive) and the GI50 (EKVX) was > 100 µM (inactive). The GI50 (HCC 2998) was > 60.5 µM (inactive), the GI50 (HCT-116) was > 100 µM (inactive) and the GI50 (HCT-15) was over 100 µM. The GI50 (HL-60) was > 100 µM (inactive), the GI50 (HOP-18) was > 40.7 µM (inactive) and the GI50 (HOP-62) was > 100 µM (inactive). For the same compound, the GI50 (HOP-92) was > 56.8 µM (inactive), the GI50 (HT-29) was > 100 µM (inactive) and the GI50 (IGROV-1) was > 100 µM (inactive). The GI50 (K562) was > 100 µM (inactive), the GI50 (KM-20L2) was > 100 µM (inactive) and the GI50 (KM12) was > 100 µM (inactive). For the same compound, the GI50 (LOX IMVI) was > 100 µM (inactive), the GI50 (M19-MEL) was > 100 µM (inactive) and the GI50 (MCF7) was > 100 µM (inactive). The GI50 (MOLT-4) was > 100 µM (inactive), the GI50 (Malme-3M) was 53.6 µM (inactive) and the GI50 (NCI-H226) was > 88.9 µM (inactive). For the same compound, the GI50 (NCI-H23) was > 100 µM (inactive), the GI50 (NCI-H460) was > 100 µM (inactive) and the GI50 (NCI-H522) was > 100 µM (inactive). For the same compound, the GI50 (NCI/ADR-RES) was > 100 µM (inactive), the GI50 (OVCAR-3) was > 100 µM (inactive) and the GI50 (OVCAR-4) was > 100 µM (inactive). For the same compound, the GI50 (OVCAR-5) was > 100 µM (inactive), the GI50 (OVCAR-8) was > 100 µM (inactive) and the GI50 (RPMI-8226) was > 100 µM (inactive). For the same compound, the GI50 (SF-268) was > 100 µM (inactive), the GI50 (SF-295) was > 100 µM (inactive) and the GI50 (SF-539) was > 100 µM (inactive). For the same compound, the GI50 (SK-MEL-28) was > 100 µM (inactive), the GI50 (SK-MEL-2) was > 70.8 µM (inactive) and the GI50 (SK-MEL-5) was > 22.2 µM (inactive). For the same compound, the GI50 (SK-OV-3) was > 100 µM (inactive), the GI50 (SN12C) was > 100 µM (inactive) and the GI50 (SNB-19) was > 100 µM (inactive). The GI50 (SNB-75) was > 50.1 µM (inactive), the GI50 (SNB-78) was > 100 µM (inactive) and the GI50 (SW-620) was > 100 µM (inactive). For the same compound, the GI50 (U-251) was > 100 µM (inactive), the GI50 (UACC-257) was > 100 µM (inactive) and the GI50 (UACC-62) was > 100 µM (inactive). The GI50 (UO-31) was > 41.5 µM (inactive) and the GI50 (XF498) was > 100 µM (inactive).
In the case of `COc1ccccc1NC(=O)CSC(N)=O`, the GI50 (786-0) is reported as 19.1 µM (inactive), the GI50 (A498) is reported as > 100 µM (inactive) and the GI50 (A549) is reported as 72.6 µM (inactive). For the same compound, the GI50 (ACHN) was 42.3 µM (inactive), the GI50 (CAKI-1) was 33.6 µM (inactive) and the GI50 (CCRF-CEM) was 12.9 µM (inactive). For the same compound, the GI50 (COLO 205) was > 100 µM (inactive), the GI50 (DLD-1) was 42.1 µM (inactive) and the GI50 (DMS-114) was 46.2 µM (inactive). The GI50 (DMS-273) was 34.4 µM (inactive), the GI50 (EKVX) was 60.1 µM (inactive) and the GI50 (HCC 2998) was > 100 µM (inactive). The GI50 (HCT-116) was 18.8 µM (inactive), the GI50 (HCT-15) was 42.8 µM and the GI50 (HL-60) was 0.349 µM (active). The GI50 (HOP-18) was 82.8 µM (inactive), the GI50 (HOP-62) was 24.7 µM (inactive) and the GI50 (HOP-92) was > 100 µM (inactive). The GI50 (HT-29) was 47.2 µM (inactive), the GI50 (IGROV-1) was 66.5 µM (inactive) and the GI50 (K562) was 46 µM (inactive). The GI50 (KM-20L2) was > 100 µM (inactive), the GI50 (KM12) was 49.5 µM (inactive) and the GI50 (LOX IMVI) was 36.4 µM (inactive). The GI50 (M14) was 45.4 µM (inactive), the GI50 (M19-MEL) was 29.2 µM (inactive) and the GI50 (Malme-3M) was 43 µM (inactive). For the same compound, the GI50 (NCI-H226) was 39.2 µM (inactive), the GI50 (NCI-H23) was 69.3 µM (inactive) and the GI50 (NCI-H460) was 32.7 µM (inactive). The GI50 (NCI-H522) was 33.4 µM (inactive), the GI50 (OVCAR-3) was 57.8 µM (inactive) and the GI50 (OVCAR-4) was > 100 µM (inactive). For the same compound, the GI50 (OVCAR-5) was > 100 µM (inactive), the GI50 (OVCAR-8) was 68.2 µM (inactive) and the GI50 (RPMI-8226) was 39.4 µM (inactive). The GI50 (SF-268) was 53.8 µM (inactive), the GI50 (SF-295) was 38.4 µM (inactive) and the GI50 (SF-539) was 34 µM (inactive). The GI50 (SK-MEL-28) was 48.1 µM (inactive), the GI50 (SK-MEL-2) was 22.9 µM (inactive) and the GI50 (SK-MEL-5) was 47.8 µM (inactive). For the same compound, the GI50 (SK-OV-3) was > 100 µM (inactive), the GI50 (SN12C) was 62.2 µM (inactive) and the GI50 (SNB-19) was > 100 µM (inactive). For the same compound, the GI50 (SNB-75) was 30 µM (inactive), the GI50 (SNB-78) was 50.4 µM (inactive) and the GI50 (SR) was 25.8 µM (inactive). For the same compound, the GI50 (SW-620) was 32.2 µM (inactive), the GI50 (TK-10) was > 100 µM (inactive) and the GI50 (U-251) was 25.6 µM (inactive). The GI50 (UACC-257) was 62.2 µM (inactive), the GI50 (UACC-62) was 25.8 µM (inactive) and the GI50 (XF498) was 30.8 µM (inactive).

Source: ChEMBL document CHEMBL1201862, “PubChem BioAssay data set” (2004)
